Data on 20 molecules can be found in ChEMBL document CHEMBL1154224, “Spiropiperidine CCR5 antagonists” (Bioorg Med Chem Lett, 2009).

Data set [1] deals with C-C chemokine receptor type 5 (Homo sapiens, UniProt P51681). Kind of data set: Displacement of [125I]RANTES from human CCR5 receptor co-transfected with Galphai6 in CHO cells. It counts as cell-based. On the technique in general: In a radioligand displacement assay an active substance lowers the binding of a labelled ligand.
Data set [2] concerns Human immunodeficiency virus 1. Description: Antiviral activity against recombinant HIV1 virus infected in human JC53BL cells after 3 days. It counts as functional, organism-based. The following applies: Human immunodeficiency virus 1, JC53BL, 72 h.
Data set [3] is described as follows: Intrinsic clearance in human liver microsomes assessed per mg of protein. Particulars: liver microsomes. It counts as ADME, Microsome. (In general: Liver microsomes are a subcellular fraction often used to study metabolism.)

pIC50: −log10 of the molar value.

Sequence of C-C chemokine receptor type 5 (P51681 whole entry): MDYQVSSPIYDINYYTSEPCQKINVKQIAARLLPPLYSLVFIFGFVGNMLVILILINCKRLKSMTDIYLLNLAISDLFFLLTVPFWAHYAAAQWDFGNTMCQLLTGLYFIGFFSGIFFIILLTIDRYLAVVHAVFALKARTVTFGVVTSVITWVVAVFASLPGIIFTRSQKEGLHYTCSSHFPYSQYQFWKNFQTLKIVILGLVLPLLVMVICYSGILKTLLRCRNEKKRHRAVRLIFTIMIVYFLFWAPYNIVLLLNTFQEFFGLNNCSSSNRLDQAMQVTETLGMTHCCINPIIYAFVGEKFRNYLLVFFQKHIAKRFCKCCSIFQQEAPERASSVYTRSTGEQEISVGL

Broadly, the pIC50 is the IC50 on a negative log10 scale, so that one unit is a factor of ten. By microsomal CLint is commonly meant the capacity of the preparation to metabolise the compound, expressed as a volume cleared per time. A lower microsomal CLint goes with slow turnover. With `CCCCC1CN(CC2CCOCC2)C(=O)OC12CCN(C1(C)CCN(C(=O)c3c(C)cc(C#N)nc3C)CC1)CC2` (racemic), the pIC50 was 7.62 in data set [1] and 8.40 in data set [2]. For the same molecule, the microsomal CLint in data set [3] worked out at 42 µL/min/mg.
As for `CCCCC1N(Cc2ccccc2)C(=O)OC12CCN(C1CCN(C(=O)c3c(C)cccc3C)CC1)CC2` (stereo not given), the pIC50 in data set [1] was 6.84; in data set [2], under 6.20.
For `CCCC1N(CC2CCCCC2)C(=O)OC12CCN(C1CCN(C(=O)c3c(C)cccc3C)CC1)CC2` (stereo not given) the same measures were 6.52 and under 6.20.
With `CCCC[C@H]1CN(CC2CCOCC2)C(=O)OC12CCN(C1(C)CCN(C(=O)c3c(C)nc(C(F)(F)F)nc3C)CC1)CC2`, the pIC50 in data set [1] is 7.01; in data set [2], 8.52. Besides, the microsomal CLint in data set [3] is 46 µL/min/mg.
Turning to `CCCC[C@H]1CN(C)C(=O)OC12CCN(C1(C)CCN(C(=O)c3c(C)cc(C#N)nc3C)CC1)CC2`, the pIC50 in data set [1] is 7.66; in data set [2] it was 7.92. This molecule also had a microsomal CLint in data set [3] of 28 µL/min/mg.
Consider `CCCCC1N(CC2CCCCC2)C(=O)OC12CCN(C1CCN(C(=O)c3ccccc3C)CC1)CC2` (stereo not given), for which the figures for the pIC50 in data set [1] and in data set [2] were 7.00 and under 6.20, respectively.
With `CCCCC1N(CC2CCCCC2)C(=O)OC12CCN(C1(C)CCN(C(=O)c3c(C)ncnc3C)CC1)CC2` (stereo not given), the pIC50 in data set [1] was 8.15; in data set [2] it was 7.34. This molecule came in with a microsomal CLint in data set [3] of 162 µL/min/mg.
For `CCCCC1CN(CC2CCCCC2)C(=O)OC12CCN(C1CCN(C(=O)c3c(C)cccc3C)CC1)CC2` (stereo not given) the same measures were 7.52, 7.54 and 307 µL/min/mg.
For `CCCCC1CN(CC2CCOCC2)C(=O)OC12CCN(C1CCN(C(=O)c3c(C)cccc3C)CC1)CC2` (stereo not given), in that order: 7.05, 7.62 and 164 µL/min/mg.
For the molecule `CCCC[C@@H]1CN(CC2CCOCC2)C(=O)OC12CCN(C1(C)CCN(C(=O)c3c(C)ncnc3C)CC1)CC2`, the pIC50 is 7.00 in data set [1] and under 6.20 in data set [2]. The microsomal CLint in data set [3] was 17 µL/min/mg.
`CCCC[C@H]1CN(C2CCOCC2)C(=O)OC12CCN(C1(C)CCN(C(=O)c3c(C)ncnc3C)CC1)CC2`: in data set [2], the pIC50 was 7.08.
On to `CCCC[C@H]1CN(CCC2CCOCC2)C(=O)OC12CCN(C1(C)CCN(C(=O)c3c(C)ncnc3C)CC1)CC2`, for which, in data set [2], the pIC50 is 8.10. This molecule had a microsomal CLint in data set [3] of 37 µL/min/mg.
As for `CCCC[C@H]1CN(CC2CCOCC2)C(=O)OC12CCN(C1(C)CCN(C(=O)c3c(C)cc[n+]([O-])c3C)CC1)CC2`, the pIC50 in data set [1] is 7.10; in data set [2], 7.28.
Turning to `CCCC[C@H]1CN(CC2CCOCC2)C(=O)OC12CCN(C1(C)CCN(C(=O)c3c(C)cc(=O)oc3C)CC1)CC2`, the pIC50 was 7.92 in data set [1] and 8.52 in data set [2]. This molecule also had a microsomal CLint in data set [3] of 36 µL/min/mg.
Consider `CCCC[C@H]1CN(CC2CCCCO2)C(=O)OC12CCN(C1(C)CCN(C(=O)c3c(C)ccnc3C)CC1)CC2` (stereo not given in full), for which the pIC50 in data set [1] was 8.00; in data set [2] it was 7.26. Besides, in data set [3], the microsomal CLint turned out to be 53 µL/min/mg.
On to `CCCCC1N(CC2CCCC2)C(=O)OC12CCN(C1CCN(C(=O)c3c(C)cccc3C)CC1)CC2` (stereo not given), for which the figures for the pIC50 in data set [1] and in data set [2] were 7.74 and under 6.20, respectively.
For `CCCCC1N(CC2CCOCC2)C(=O)OC12CCN(C1CCN(C(=O)c3c(C)cccc3C)CC1)CC2` (stereo not given) the same measures were 7.62 and under 6.20.
`CCCC[C@H]1CN(CC2CCC(F)(F)CC2)C(=O)OC12CCN(C1(C)CCN(C(=O)c3c(C)ncnc3C)CC1)CC2`: the negative logarithm of the IC50 (pIC50) in data set [1] is 7.57; in data set [2], 8.70. Moreover, in data set [3], the microsomal CLint came to 106 µL/min/mg.
For `CCCCC1CN(CC2CCOCC2)C(=O)OC12CCN(C1CCN(C(=O)c3c(C)ncnc3C)CC1)CC2` (stereo not given), the pIC50 in data set [1] is 7.12; in data set [2], 6.39.
For the molecule `CCCCC1CN(CC2CCOCC2)C(=O)OC12CCN(C1(C)CCN(C(=O)c3c(C)ncnc3C)CC1)CC2` (stereo not given), the figures for the pIC50 in data set [1] and in data set [2] were 7.60 and 7.85, respectively. Further, in data set [3], the microsomal CLint stood at 17 µL/min/mg.
